According to US10782295B2, “Cysteine-reactive ligand discovery in proteomes” (THE SCRIPPS RESEARCH INSTITUTE, priority 2013, dated 2020):

Assays:
FN3KRP = biological target: T1, FN3KRP (Homo sapiens, UniProt Q9HA64); experiment: competitive isoTOP-ABPP, MDA-MB-231 soluble proteome; format: binding; conditions: 100 μM LDE, 60 min; peptide ATGHSGGGC*ISQGR
T1 construct: directly in native proteomes; endogenous in cells; host or cells: MDA-MB-231
T1 sequence (Q9HA64 1-309): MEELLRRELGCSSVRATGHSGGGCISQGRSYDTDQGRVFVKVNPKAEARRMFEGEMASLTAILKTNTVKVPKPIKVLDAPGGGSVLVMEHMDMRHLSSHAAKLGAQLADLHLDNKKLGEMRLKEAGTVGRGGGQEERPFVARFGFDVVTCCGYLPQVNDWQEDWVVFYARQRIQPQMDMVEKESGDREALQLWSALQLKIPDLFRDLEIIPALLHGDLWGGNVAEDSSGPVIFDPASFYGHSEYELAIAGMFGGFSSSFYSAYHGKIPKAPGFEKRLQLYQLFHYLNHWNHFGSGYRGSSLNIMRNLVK
Experimental: (§1) Here, we envisioned that isoTOP-ABPP could be advanced to discover and quantify reactions between cysteines in proteomes and any electrophilic compound. In this advanced, ‘competitive’ version of isoTOP-ABPP (FIG. 1a), a proteome is treated with an electrophile (experimental sample) or DMSO (control sample). Both proteomic samples are then labeled with the IA probe and conjugated by CuAAC to light and heavy azide-biotin tags, respectively. The light and heavy samples are then mixed and subjected to our described isoTOP-ABPP protocol for enrichment, identification, and quantification of IA-labeled cysteines^30. Electrophile-modified cysteines are quantified by measuring the MS1 chromatographic peak ratios (R values) for heavy (DMSO-treated) over light (electrophile-treated) samples, with higher R values reflecting greater sensitivity to the electrophile. In this format, competitive isoTOP-ABPP can assay electrophiles against 1000+ cysteines in parallel directly in native proteomes without requiring any chemical modification to the electrophiles themselves.
(§2) Competitive isoTOP-ABPP experiments were performed in quadruplicate using the soluble proteome of the human breast cancer cell line MDA-MB-231 cell line. Proteomes were treated with 100 μM HNE, 15d-PGJ2, or 2-HD, for 60 minutes, followed by the IA-probe (100 μM, 60 min) A total of ˜1400 cysteine reactivities were quantified across the aggregate data set, with at least 900 cysteine reactivities quantified for each LDE (FIG. 2a) more than 750 of which were quantified for all the three electrophiles.
(§3) The MDA-MB-231 cell proteome was treated with varying concentrations of HNE (5, 10, 50, 100 and 500 μM) for 60 min and then the IA-labeling profile of each reaction was quantitatively compared to a DMSO-control sample by isoTOP-ABPP.
(§4) HNE was purchased from EMD biosciences, 15d-PGJ2 was purchased from Cayman Chemicals and 2-HD was purchased from Santa Cruz Biotechnology. Proteome samples were diluted to a 4 mg protein/mL solution in PBS. For each profiling experiment, one aliquot of the proteome sample (0.5 mL) was treated with 100 μM of LDE using 5 μL of a 10 mM stock and the other aliquot was treated with 5 μL of either ethanol (for HNE and 15d-PGJ2) or DMSO (for 2-HD) as control. For the concentration-dependent profiling experiments using HNE, aliquots of the proteomes (0.5 mL each) were treated with 5, 10, 50, 100 and 500 μM of HNE using 5 μL of 0.5, 1.0, 5, 10 and 50 mM of stock solution, respectively. After 60 minutes of treatment at room temperature, both the LDE-treated and control aliquots were passed through a NAP-5 Sephadex column (GE healthcare) to remove any unreacted LDE. The volume of each aliquot was increased to 1 mL with the concentration at 2 mg/mL after this step.
(§5) Each of the control and LDE-treated proteome samples (˜2 mg protein/mL in 1 mL volume) was treated with 100 μM of IA-probe using 10 μL of a 10 mM stock in DMSO. The labeling reactions were incubated at room temperature for 1 hour. Click chemistry (acetylene-azide cycloaddition) was performed by the addition of 100 μM of either the Heavy-TEV-Tag (for the control sample) or Light-TEV-Tag (for the LDE-treated sample) (20 μL of a 5 mM stock), 1 mM TCEP (fresh 50× stock in water), 100 μM ligand (17× stock in DMSO:t-Butanol 1:4) and 1 mM CuSO4 (50× stock in water). Samples were allowed to react at room temperature for 1 hour. After the click chemistry step, the light and heavy-labeled samples were mixed together and centrifuged (5900×g, 4 min, 4° C.) to pellet the precipitated proteins.
(§6) The pellets were washed twice in cold MeOH, after which the pellet was solubilized in PBS containing 1.2% SDS via sonication and heating (5 min, 80° C.). Samples were subjected to streptavidin enrichment of probe-labeled proteins, sequential on-bead trypsin and TEV digestion, and liquid chromatography-mass spectrometry (LC-MS) analysis according to the published isoTOP-ABPP protocol^30. […]

EEF2 = biological target: T2, EEF2 (Homo sapiens, UniProt P13639); experiment: as above; format: binding; conditions: 100 μM LDE, 60 min; peptide STLTDSLVC*K
T2 construct: directly in native proteomes; endogenous in cells; host or cells: MDA-MB-231
Experimental: as §1, §2, §3, §4, §5, §6

How did the “R value (isoTOP-ABPP ratio heavy/light) for IA-labeled cysteine of FN3KRP” value (FN3KRP) turn out when `CCCCCCCCCCCCC/C=C/C=O` [2-HD, 2-trans-hexadecenal] was run?
Its value is 1.03.

What about the “R value (isoTOP-ABPP ratio heavy/light) for IA-labeled cysteine of EEF2” value (EEF2) of the same compound?
Its value is 1.06.

For `CCCCCC(O)/C=C/C=O` (stereo not drawn) [4-HNE, 4-Hydroxynonenal], which “R value (isoTOP-ABPP ratio heavy/light) for IA-labeled cysteine of FN3KRP” value (FN3KRP) is on record?
Its value is over 15.

And the “R value (isoTOP-ABPP ratio heavy/light) for IA-labeled cysteine of EEF2” value (EEF2)?
Its value is 11.63.

What does the source list for `CCCCC/C=C/C=C1/C(=O)C=C[C@@H]1C/C=C\CCCC(=O)O` [PGJ2, 15-deoxy-Δ12,14-prostaglandin J2]?
R value (isoTOP-ABPP ratio heavy/light) for IA-labeled cysteine of FN3KRP (FN3KRP): 1.62; R value (isoTOP-ABPP ratio heavy/light) for IA-labeled cysteine of EEF2 (EEF2): 3.31
